{"source": "patent US20220331445A1", "about": "“HIGH DENSITY LIPOPROTEIN-LIKE NANOPARTICLES AS INDUCERS OF FERROPTOSIS IN CANCER” (Northwestern University, priority 2019, published 2022)", "key": {"[1]": {"system": "OVCAR5 CP Resistant Cell Line", "experiment": "MTS cell death / rescue assay in OVCAR5 CP Resistant cells", "assay_type": "cell-based", "details": "OVCAR5 CP Resistant cells with HDL NPs"}, "[2]": {"system": "769-P, a clear cell renal carcinoma cell line", "experiment": "MTS cell death / rescue assay in 769-P cells", "assay_type": "cell-based", "details": "769-P cells with HDL NPs"}, "SUDHL4 cells": {"system": "SUDHL4 cells", "experiment": "Cell death (MTS) assay in SUDHL4 cells", "assay_type": "cell-based, human", "details": "SUDHL4 cells cultured with HDL NPs; inhibitor added at 1 μM", "procedure": "(§1) MTS assays (CellTiter; Promega) were conducted as described previously. For the Ramos, SUDHL4, Raji, Daudi, Namalwa, SUDHL6 and Jurkat cells were plated at a density of 2×10^5 cells/mL, and cultured for 72 hours prior to assay. SUDHL1, SR-786, and U937 cells were plated at a density of 5×10^4 cells/mL and cultured for 5 days prior to MTS assay. The SCARB1 blocking and isotype control antibodies were added at a dilution of 1:1000 to 1:250. Ferrostatin-1 and deferoxamine (DFO) were obtained from Sigma Aldrich, and added at a final concentration of 1 μM. MTS values were standardized to PBS control."}, "OVCAR5 cell line": {"system": "OVCAR5 cell line", "experiment": "MTS cell death / rescue assay in OVCAR5 cells", "assay_type": "cell-based", "details": "OVCAR5 cells with HDL NPs"}, "Ramos cells": {"system": "Ramos cells", "experiment": "Cell death (MTS) assay in Ramos cells", "assay_type": "cell-based, human", "details": "Ramos cells cultured with HDL NPs; inhibitor added at 1 μM", "procedure": "as §1"}, "[3]": {"system": "786-O (renal cell carcinoma-clear cell) cells", "experiment": "MTS cell death / rescue assay in 786-O cells", "assay_type": "cell-based", "details": "786-O cells with HDL NPs"}}}
{"smiles": "CCOC(=O)c1ccc(NC2CCCCC2)c(N)c1", "note": "[ferrostatin-1]", "values": [{"measurement": "effect on cell death induced by HDL NPs (MTS)", "setting": "[1]", "result": "rescued"}, {"measurement": "effect on cell death induced by HDL NPs (MTS)", "setting": "[2]", "result": "rescued"}, {"measurement": "effect on HDL NP induced cell death", "setting": "SUDHL4 cells", "result": "significantly inhibited"}, {"measurement": "effect on cell death induced by HDL NPs (MTS)", "setting": "OVCAR5 cell line", "result": "rescued"}, {"measurement": "effect on HDL NP induced cell death", "setting": "Ramos cells", "result": "significantly inhibited"}, {"measurement": "effect on cell death induced by HDL NPs (MTS Rescue Assay)", "setting": "[3]", "result": "rescued"}, {"measurement": "effect on cell death induced by HDL NPs (MTS Rescue Assay)", "setting": "[3]; listed as Ferrostatin-1", "result": "dramatic effects"}]}
